This note sets out measurements from US20240327434A1, “FUSED TETRACYCLIC COMPOUND, PREPARATION METHOD THEREFOR AND APPLICATION THEREOF IN MEDICINE” (Jiangsu Hengrui Pharmaceuticals Co., Ltd., priority 2021, published 2024).

One assay deals with GP2d cells. Put plainly: Inhibition of 3D proliferation of GP2d cells (CellTiter-Glo 3D). The assay is classed as cell-based. The conditions noted are these: 120 h incubation, read-out: GP2d/ IC50 (nM), inhibitory activity for 3D proliferation. The procedure: (§1) The inhibition effect of the compounds disclosed herein on the KRAS target was evaluated by testing the 3D proliferation inhibition effect of the compounds disclosed herein on GP2d and AGS cells.
GP2d cells (Nanjing Cobioer, CBP60010) were cultured in a complete medium, namely DMEM/high glucose medium (Hyclone, SH30243.01) containing 10% fetal bovine serum (Corning, 35-076-CV). On the first day of the experiment, GP2d cells were seeded into a 96-well low adsorption plate (Corning, CLS7007-24EA) with complete medium at a density of 1,000 cells/well to form 90 μL of cell suspension per well. The plate was centrifuged at 2,000 rpm for 5 min at room temperature and then incubated overnight in a cell incubator at 37° C. with 5% CO2.
The next day, 10 μL of serially-diluted test compound prepared from the complete medium was added to each well. […] A blank control containing 0.5% DMSO was set. The well plate was incubated in a cell incubator at 37° C. with 5% CO2 for 120 h.
On the technique in general: ATP-based viability assays read luminescence as a measure of living cells.

The subject of a further assay is AGS cells. Nature of the assay: Inhibition of 3D proliferation of AGS cells (CellTiter-Glo 3D). Type of assay: cell-based. The conditions noted are these: Homo sapiens, 120 h incubation, read-out: AGS/ IC50 (nM), inhibitory activity for 3D proliferation. How it is done: as §1
AGS cells (Nanjing Cobioer, CBP60476) were cultured in a complete medium, namely RPMI1640 medium (Hyclone, SH30809.01) containing 10% fetal bovine serum (Corning, 35-076-CV). On the first day of the experiment, the AGS cells were seeded into a 96-well low adsorption plate (Corning, CLS7007-24EA) at a density of 1,000 cells/well using complete medium to form 90 μL of cell suspension per well. The plate was centrifuged at 2,000 rpm for 5 min at room temperature and then incubated overnight in a cell incubator at 37° C. with 5% CO2.
The next day, 10 μL of serially-diluted test compound prepared from the complete medium was added to each well. […] On the seventh day, the 96-well cell culture plate was taken out, 50 μL CellTiter-Glo® 3D reagent (Promega, G9682) was added into each well, the plate was shaken at room temperature for 25 min, pipetted and mixed well, 50 μL of the solution was transferred into a white impermeable 96-well plate (PE, 6005290), and the luminescence signal values were read using a multifunctional microplate reader (PerkinElmer, ENVISION).

Assay [1] relates to ERK phosphorylation of AGS cells. Nature of the assay: Inhibition of ERK phosphorylation of AGS cells (HTRF method). Type of assay: cell-based. The note with it: Homo sapiens, 1 h compound incubation, phosphorylated ERK/total ERK ratio, read-out: AGS/ IC50 (nM), inhibitory activity for ERK phosphorylation. How it is done:
In the experiment, the inhibition effect of the compounds on ERK phosphorylation of the cells was detected, and the inhibition effect of the compounds disclosed herein on the KRAS target was evaluated according to the IC50.
AGS cells (Nanjing Cobioer, CBP60476) were cultured in RPMI1640 (Hyclone, SH30809.01) complete medium containing 10% fetal bovine serum. On the first day of the experiment, the AGS cells were seeded into a 96-well plate with complete medium at a density of 40,000 cells/well to form 190 μL of cell suspension per well. The plate was incubated overnight in a cell incubator at 37° C. with 5% CO2.
The next day, 10 μL of serially-diluted test compound prepared from the complete medium was added to each well. The final concentrations of the compound were 9 concentration points obtained by 5-fold serial dilution from 10 μM. A blank control containing 0.5% DMSO was set. The well plate was incubated in a cell incubator at 37° C. with 5% CO2 for 1 h. After completion of incubation, the 96-well cell culture plate was taken out, the medium was removed by pipetting, 200 μL PBS (Shanghai BasalMedia Technologies Co., Ltd., B320) was added to each well, and the cells were washed once. PBS was removed by pipetting, 50 μL of lysis buffer (Cisbio, 64KL1FDF) containing a blocking solution (blocking reagent, Cisbio, 64KB1AAC) was added to each well, and the well plate was lysed on a shaker for 40 min at room temperature with shaking. After lysis, the lysate was pipetted and mixed well, 16 μL of lysate was transferred to two HTRF 96-well assay plates (Cisbio, 66PL96100) per well, and then 4 μL of premixed phosphorylated ERK1/2 antibody solution (Cisbio, 64AERPEG) or 4 μL of premixed total ERK1/2 antibody solution (Cisbio, 64NRKPEG) was added to these two plates. The microplate was sealed with a sealing membrane, centrifuged for 1 min in a microplate centrifuge, and incubated overnight at room temperature in the dark. On the third day, the fluorescence values at an excitation wavelength of 337 nm and at emission wavelengths of 665 nm and 620 nm were read using an ENVISION multifunctional microplate reader (PerkinElmer, ENVISION).
On the technique in general: TR-FRET usually uses a lanthanide donor and a delayed reading to cut background.

The target in assay [2] is KRAS protein subtype G12D (Avi-KRAS-G12D) (Homo sapiens (Human), UniProt P01116, G12D). Nature of the assay: SPR affinity for KRAS protein subtype G12D (Biacore 8K). Type of assay: binding. The note with it: single-cycle kinetic mode, 1:1 model, read-out: G12D KD (unit mol/L). How it is done: (§2) Biotinylated Avi-KRAS-WT or Avi-KRAS-G12D was diluted to 20 μg/mL with 1x HBS-P+(Cat. #BR1006-71) buffer containing 100 mM MgCl2, and then flowed through SA (Cat. #BR1005-31) biosensing chip channel 2 for 420 s to obtain a coupling level of approximately 5000-7000 RU. Then samples of small molecular compounds were injected for 120 s in an ascending order, and then were dissociated for 720 s. The experiment employed a single-cycle kinetic mode. Reaction signals were detected in real time using a Biacore 8K instrument to obtain association and dissociation curves. After the experiment ended, data analysis was performed using Biacore 8K evaluation software, and affinity data were obtained by performing data fitting using a 1:1 model.

Assay [3] concerns the target KRAS protein subtype WT (Avi-KRAS-WT) (Homo sapiens (Human), UniProt P01116). Nature of the assay: SPR affinity for KRAS protein subtype WT (Biacore 8K). Type of assay: binding. The conditions noted are these: single-cycle kinetic mode, 1:1 model, read-out: WT KD (unit mol/L). How it is done: as §2
On the technique in general: Surface plasmon resonance follows binding to a sensor surface in real time, without labels.

KRAS protein subtype G12D (Avi-KRAS-G12D), sequence (P01116 whole entry G12D): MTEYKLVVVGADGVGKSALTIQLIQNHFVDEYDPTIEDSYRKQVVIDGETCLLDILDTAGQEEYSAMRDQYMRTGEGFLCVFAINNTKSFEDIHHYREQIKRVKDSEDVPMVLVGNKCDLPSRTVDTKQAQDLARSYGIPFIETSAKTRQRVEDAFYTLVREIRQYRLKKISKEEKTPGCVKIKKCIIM
KRAS protein subtype WT (Avi-KRAS-WT), sequence (P01116 whole entry): as the sequence (P01116 whole entry G12D) above, with D12G counted along it

With `CCc1c(F)ccc2cc(O)cc(-c3nc4c5c(nc(OCC6(CN7CC8CC8(CO)C7)CC6)nc5c3F)N3C[C@H]5CC[C@H](N5)[C@H]3CO4)c12` (stereo partly drawn) [Example 23, 5-Ethyl-6-fluoro-4-((5aS,6S,9R)-1-fluoro-12-((1-((1-(hydroxymethyl)-3-azabicyclo[3.1.0]hex-3-yl)methyl)cyclopropyl)methoxy)-5a,6,7,8,9,10-hexahydro-5H-4-oxa-3,10a, 11,13,14-pentaaza-6,9-methanonaphtho[1,8-ab]heptalen-2-yl)naphthalen-2-ol], the IC50 came out at 8.8 nM in the assay with GP2d cells, 108 nM in the assay on AGS cells and 4 nM in assay [1].
In the case of `CCc1cccc2cc(O)cc(-c3cc4nc(OC[C@@]56CCCN5C[C@H](F)C6)nc5c4c(n3)OCC3C4CCC(CN53)N4)c12` (mixture of isomers) [Diastereomeric (1:1) mixture of 2-p1 and 2-p2, 5-Ethyl-4-(12-(((2R,7aS)-2-fluorotetrahydro-1H-pyrrolizin-7a(5H)-yl)methoxy)-5a,6,7,8,9,10-hexahydro-5H-4-oxa-3,10a,11,13,14-pentaaza-6,9-methanonaphtho[1,8-ab]heptalen-2-yl) naphthalen-2-ol], the Kd came out at 0.4 nM in assay [2] and 32.4 nM in assay [3].
On the same counts, the results for `Oc1cc(-c2nc3c4c(nc(OC[C@@]56CCCN5C[C@H](F)C6)nc4c2F)N2C[C@H]4CC[C@H](N4)[C@H]2CO3)c2c(F)c(F)ccc2c1` [Example 8-p1, 5,6-Difluoro-4-((5aS,6S,9R)-1-fluoro-12-(((2R,7aS)-2-fluorotetrahydro-1H-pyrrolizin-7 a(5H)-yl)methoxy)-5a,6,7,8,9,10-hexahydro-5H-4-oxa-3,10a,11,13,14-pentaaza-6,9-methanonaphtho[1,8-ab]heptalen-2-yl)naphthalen-2-ol] are 0.1 nM and 3.8 nM.
`CCc1cccc2cc(O)cc(-c3cc4c5c(nc(OC[C@@]67CCCN6C[C@H](F)C7)nc5c3F)N3CC5CCC(N5)C3CO4)c12` (mixture of isomers) [Diastereomeric (1:1) mixture of 11-p1 and 11-p2, 5-Ethyl-4-(1-fluoro-13-(((2R,7aS)-2-fluorotetrahydro-1H-pyrrolizin-7a(5H)-yl)methoxy)-5a,6,7,8,9,10-hexahydro-5H-6,9-epiminoazepino[2′,1′: 3,4][1,4]oxazepino[5,6,7-de]quinazolin-2-yl) naphthalen-2-ol]: the values for the IC50 (in the assay with GP2d cells; in assay [1]) were 62.5 nM and 15.6 nM, respectively.
With `CCc1c(F)ccc2cc(O)cc(-c3nc4c5c(nc(OC[C@@]67CCCN6C[C@H](F)C7)nc5c3F)N3C[C@H]5CC[C@H](N5)[C@H]3CO4)c12` [Example 9-p1, 5-Ethyl-6-fluoro-4-((5aS,6S,9R)-1-fluoro-12-(((2R,7aS)-2-fluorotetrahydro-1H-pyrrolizin-7a(5H)-yl)methoxy)-5a,6,7,8,9,10-hexahydro-5H-4-oxa-3,10a, 11,13,14-pentaaza-6,9-methanonaphtho[1,8-ab]heptalen-2-yl)naphthalen-2-ol], the values for the Kd in assay [2] and in assay [3] were 0.03 nM and 1.54 nM, respectively.
For the molecule `Oc1cc(Cl)c(C2CC2)c(-c2nc3c4c(nc(OC[C@@]56CCCN5C[C@H](F)C6)nc4c2F)N2C[C@H]4CC[C@H](N4)[C@H]2CO3)c1` [Example 6-p1, 3-Chloro-4-cyclopropyl-5-((5aS,6S,9R)-1-fluoro-12-(((2R,7aS)-2-fluorotetrahydro-1H-pyrrolizin-7a(5H)-yl)methoxy)-5a,6,7,8,9,10-hexahydro-5H-4-oxa-3,10a,11,13,14-pentaaza-6,9-methanonaphtho[1,8-ab]heptalen-2-yl)phenol], the results for the Kd in assay [2] and in assay [3] were 0.1 nM and 7 nM, respectively.
Turning to `CCc1cccc2cc(O)cc(-c3nc4c5c(nc(OC[C@@]67CCCN6C[C@H](F)C7)nc5c3F)N3CC5CCC(N5)C3CO4)c12` (mixture of isomers) [Diastereomeric (1:1) mixture of 4-p1 and 4-p2, 5-Ethyl-4-(1-fluoro-12-(((2R,7aS)-2-fluorotetrahydro-1H-pyrrolizin-7a(5H)-yl)methoxy)-5a,6,7,8,9,10-hexahydro-5H-4-oxa-3,10a,11,13,14-pentaaza-6,9-methanonaphtho[1,8-ab]heptalen-2-yl)naphthalen-2-ol], in assay [1], the IC50 came to 1.35 nM.
Consider `CCc1c(F)ccc2cc(O)cc(-c3nc4c5c(nc(OCC6(CN7C[C@H]8C[C@H]8[C@H]7CO)CC6)nc5c3F)N3C[C@H]5CC[C@H](N5)[C@H]3CO4)c12` [Example 22, 5-Ethyl-6-fluoro-4-((5aS,6S,9R)-1-fluoro-12-((1-(((1R,2S,5S)-2-(hydroxymethyl)-3-azabicyclo[3.1.0]hex-3-yl)methyl)cyclopropyl)methoxy)-5a,6,7,8,9,10-hexahydro-5H-4-oxa-3,10a, 11,13,14-pentaaza-6,9-methanonaphtho[1,8-ab]heptalen-2-yl)naphthalen-2-ol], for which the IC50 in the assay on GP2d cells was found to be 9.6 nM; in assay [1] it was 10.2 nM.
`CCc1cccc2cc(O)cc(-c3nc4c5c(nc(OC[C@@]67CCCN6C[C@H](F)C7)nc5c3F)N3C[C@H]5CC[C@H](N5)[C@H]3CO4)c12` [Example 4-p1, 5-Ethyl-4-((5aS,6S,9R)-1-fluoro-12-(((2R,7aS)-2-fluorotetrahydro-1H-pyrrolizin-7a(5H)-yl)methoxy)-5a,6,7,8,9,10-hexahydro-5H-4-oxa-3,10a, 11,13,14-pentaaza-6,9-methanonaphtho[1,8-ab]heptalen-2-yl)naphthalen-2-ol]: the Kd in assay [2] worked out at 0.14 nM; in assay [3] it was 3.4 nM.
Turning to `Oc1cc(-c2cc3nc(OC[C@@]45CCCN4C[C@H](F)C5)nc4c3c(n2)OCC2C3CCC(CN42)N3)c2c(F)cccc2c1` (mixture of isomers) [Diastereomeric (1:1) mixture of 1-p1 and 1-p2, 5-Fluoro-4-(12-(((2R,7aS)-2-fluorotetrahydro-1 H-pyrrolizin-7a(5H)-yl)methoxy)-5a,6,7,8,9,10-hexahydro-5H-4-oxa-3,10a,11,13,14-pentaaza-6,9-methanonaphtho[1,8-ab]heptalen-2-yl) naphthalen-2-ol], in assay [1], the IC50 came to 94.1 nM.
